Molecular target: flavodoxin II (apoflavodoxin) (Azotobacter vinelandii, UniProt P00324, C70A)
Test: FMN fluorescence increase on dilution of holoprotein
Assay type: binding

flavodoxin II (apoflavodoxin), sequence (P00324 2-180 C70A): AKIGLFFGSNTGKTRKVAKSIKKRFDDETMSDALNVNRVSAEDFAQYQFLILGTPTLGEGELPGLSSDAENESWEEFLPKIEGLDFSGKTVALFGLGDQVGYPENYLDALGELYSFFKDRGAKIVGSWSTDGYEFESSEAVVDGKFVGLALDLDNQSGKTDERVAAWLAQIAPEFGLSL

Cc1cc2nc3c(=O)[nH]c(=O)nc-3n(C[C@H](O)[C@H](O)[C@H](O)COP(=O)(O)O)c2cc1C [flavin mononucleotide]
Kd: 3.82 pM
